{
  "source": "patent EP0086092A2",
  "about": "“Antifungal compositions” (priority 1982, dated 1983)",
  "key": {"Candida albicans B 311": {"test_system": "Candida albicans B 311", "experiment": "disc diffusion, zone of inhibition on seeded agar plates", "type": "cell-based", "conditions": "16-18 h; for Zone Size / Zone Size B 311: 28-37°C; for Zone Size Sabouarud Agar / Zone Size YNB agar: Table II, 37°C; for Zone Size YNB agar: lysine; for Zone Size B 311: Table IV-a", "experimental": "The antifungal activity of aculeacin A and the compositions of aculeacin A and fatty acids was measured by disc diffusion.\nThe effects of a number of fatty acids on the antifungal activity of aculeacin A were determined by utilizing seeded plates of Candida albicans B 311 in yeast nitrogen base (YNB) agar (Difco) with glucose as the carbon source. A composition containing one unit by weight of aculeacin A and 5 units of fatty acid or the sodium salt thereof was spotted on the seeded plates and the size of the zone of inhibition after 16-18 hours incubation at 28-37 °C was measured.\nAdditional fatty acids were tested to determine , if they increased the intrinsic activity of aculeacin A against C. albicans B 311 utilizing seeded plates of YNB agar (Difco) with lysine as the carbon source and seeded plates of Sabouarud dextrose agar (Difco). Compositions containg one µg of aculeacin A and various amounts of the fatty acid was spotted on the seeded plates and the size of the zone of inhibition after 16-18 hours incubation at 37 °C was measured.\nThe antifungal effects of compositions containing a single amount of oleic acid as the sodium salt while varying the amounts of aculeacin A were determined by utilizing seeded plates of Candida albicans B 311 in Sabouarud dextrose agar and measuring the zone of inhibition after 16-18 hours incubation at 28-37°C.\n(§1) The antifungal effects of compositions containing a single amount of aculeacin A while varying the amounts. of oleic acid as the sodium salt were determined by utilizing seeded plates of Candida albicans strains B 311, BC 759 and B 3153A and measuring the zone of inhibition after 16-18 hours at 28-37°C. This test was also performed with linoleic acid and linolenic acid.\n(§2) The seeded plates of Candida albicans strains B 311, BC 759, and B 3153A were prepared by inoculating 50 ml of trypticase soy broth (BBL) with one ml of the preserved frozen culture and incubating the inoculum at 37°C for 7 hours on a rotary shaker. Two milliliters of this culture were used to inoculate one liter of Sabouarud dextrose agar (Difco) at 50°C and 15 milliliters of the resultant medium poured into 150 mm petri-dishes."}, "Candida albicans B 3153A": {"test_system": "Candida albicans B 3153A", "experiment": "disc diffusion, zone of inhibition on seeded agar plates", "type": "cell-based", "conditions": "Table IV-a, 16-18 h, 28-37°C", "experimental": "(§3) The antifungal activity of aculeacin A and the compositions of aculeacin A and fatty acids was measured by disc diffusion. Potentiation of antifungal activity was examined by three different methods employing: (1) a single concentration of aculeacin A and a single concentration of known fatty acids; '(2) various concentrations of aculeacin A with a single concentration of individual fatty acids; and (3) various concentrations of fatty acids with a single concentration of aculeacin A. The antifungal activities of aculeacin A and the fatty acids were separately checked as controls.\nas §1, §2"}, "Candida albicans BC 759": {"test_system": "Candida albicans BC 759", "experiment": "disc diffusion, zone of inhibition on seeded agar plates", "type": "cell-based", "conditions": "Table IV-a, 16-18 h, 28-37°C", "experimental": "as §3, §1, §2"}, "C. albicans": {"test_system": "C. albicans", "experiment": "topical treatment of C. albicans skin infections of mice", "type": "in vivo", "conditions": "female CF-1 mice, shaved back skin infected with clinical isolates; topical treatment for 5 days; aculeacin A at its MIC for each isolate; compared with aculeacin A itself, Lotrimin cream and control", "experimental": "Clinical isolates of C. albicans were grown in Sabouarud dextrose agar and subcultured into mouse serum and incubated at 35 C. Female mice (CF-1, 4 to 6 weeks old) were shaved on the back (2cm ^2 area).\nThe shaved area was cleaned with 70%'alcohol and scrubbed with a wire brush. This area was then painted with the C. albicans in mouse serum as noted above (10^5-10^6 CFu/ml.) and after drying this area was covered with sterile gauze and the infection was allowed to develop over two days. After the development of the infection, the mice were treated with aculeacin A/oleic acid composition, aculeacin A and Lotrimin^R (Clotrimazole-Schering) for 5 days. The minimum inhibitory concentration (MIC) for aculeacin A for each clinical isolate of C. albicans was determined and that amount was employed in each experiment. Commercially available Lotrimin^R cream was utilized in each experiment. […] Note that bacterial contamination was ruled out by microscopic examination. • [formula] where 4 - the most severe infection - zone of inoculation highly erythrematous with culture mainly consisting of C. albicans. • 3 - severe infection with some healing • 2 - less severe infection • 1 - very little infection • 0 - no infection."}, "[1]": {"conditions": "aculeacin A 0.40 µg + oleic acid (as sodium salt) 5 µg"}, "[2]": {"conditions": "aculeacin A 0.40 µg + oleic acid (as sodium salt) 10 µg"}, "[3]": {"conditions": "aculeacin A 0.40 µg + oleic acid (as sodium salt) 20 µg"}, "[4]": {"conditions": "aculeacin A 0.40 µg + oleic acid (as sodium salt) 40 µg"}, "[5]": {"conditions": "aculeacin A 0.40 µg + oleic acid (as sodium salt) 78 µg"}, "[6]": {"conditions": "aculeacin A 0.40 µg + oleic acid (as sodium salt) 156 µg"}, "[7]": {"conditions": "aculeacin A 0.40 µg + oleic acid (as sodium salt) 312 µg"}, "[8]": {"conditions": "aculeacin A 0.40 µg + oleic acid (as sodium salt) 625 µg"}, "[9]": {"conditions": "aculeacin A 0.40 µg + oleic acid (as sodium salt) 1250 µg"}},
  "data": [
    {"compound": "CCCCCCCC/C=C\\CCCCCCCC(=O)O", "note": "[Oleic Acid]", "values": [
      {"measurement": "Zone Size", "setting": "Candida albicans B 311; Table I, YNB agar, glucose as carbon source, composition of 1 unit by weight aculeacin A + 5 units fatty acid", "value": 32, "unit": "mm"},
      {"measurement": "Zone Size Sabouarud Agar", "setting": "Candida albicans B 311; Sabouarud dextrose agar, aculeacin A 0 µg, fatty acid 250 µg alone", "value": 0, "unit": "mm"},
      {"measurement": "Zone Size Sabouarud Agar", "setting": "Candida albicans B 311; Sabouarud dextrose agar, aculeacin A 0 µg, fatty acid 500 µg alone", "value": 0, "unit": "mm"},
      {"measurement": "Zone Size Sabouarud Agar", "setting": "Candida albicans B 311; Sabouarud dextrose agar, aculeacin A 0 µg, fatty acid 1000 µg alone", "value": 0, "unit": "mm"},
      {"measurement": "Zone Size Sabouarud Agar", "setting": "Candida albicans B 311; Sabouarud dextrose agar, composition of aculeacin A 1 µg + fatty acid 250 µg", "value": 28, "unit": "mm"},
      {"measurement": "Zone Size Sabouarud Agar", "setting": "Candida albicans B 311; Sabouarud dextrose agar, composition of aculeacin A 1 µg + fatty acid 500 µg", "value": 26, "unit": "mm"},
      {"measurement": "Zone Size Sabouarud Agar", "setting": "Candida albicans B 311; Sabouarud dextrose agar, composition of aculeacin A 1 µg + fatty acid 1000 µg", "value": 26, "unit": "mm"},
      {"measurement": "Zone Size YNB agar", "setting": "Candida albicans B 311; YNB agar, aculeacin A 0 µg, fatty acid 250 µg alone", "value": 0, "unit": "mm"},
      {"measurement": "Zone Size YNB agar", "setting": "Candida albicans B 311; YNB agar, aculeacin A 0 µg, fatty acid 500 µg alone", "value": 0, "unit": "mm"},
      {"measurement": "Zone Size YNB agar", "setting": "Candida albicans B 311; YNB agar, aculeacin A 0 µg, fatty acid 1000 µg alone", "value": 0, "unit": "mm"},
      {"measurement": "Zone Size YNB agar", "setting": "Candida albicans B 311; YNB agar, composition of aculeacin A 1 µg + fatty acid 250 µg", "value": 35, "unit": "mm"},
      {"measurement": "Zone Size YNB agar", "setting": "Candida albicans B 311; YNB agar, composition of aculeacin A 1 µg + fatty acid 500 µg", "value": 35, "unit": "mm"},
      {"measurement": "Zone Size YNB agar", "setting": "Candida albicans B 311; YNB agar, composition of aculeacin A 1 µg + fatty acid 1000 µg", "value": 35, "unit": "mm"},
      {"measurement": "Zone Size", "setting": "Candida albicans B 311; Table III, Sabouarud dextrose agar, aculeacin A 0.000 µg, oleic acid (as sodium salt) 12.5 µg alone", "value": 0, "unit": "mm"},
      {"measurement": "Zone Size", "setting": "Candida albicans B 311; Table III, Sabouarud dextrose agar, aculeacin A 0.020 µg + oleic acid (as sodium salt) 12.5 µg", "value": "trace"},
      {"measurement": "Zone Size", "setting": "Candida albicans B 311; Table III, Sabouarud dextrose agar, aculeacin A 0.039 µg + oleic acid (as sodium salt) 12.5 µg", "value": 28, "unit": "mm"},
      {"measurement": "Zone Size", "setting": "Candida albicans B 311; Table III, Sabouarud dextrose agar, aculeacin A 0.078 µg + oleic acid (as sodium salt) 12.5 µg", "value": 29, "unit": "mm"},
      {"measurement": "Zone Size", "setting": "Candida albicans B 311; Table III, Sabouarud dextrose agar, aculeacin A 0.156 µg + oleic acid (as sodium salt) 12.5 µg", "value": 32, "unit": "mm"},
      {"measurement": "Zone Size", "setting": "Candida albicans B 311; Table III, Sabouarud dextrose agar, aculeacin A 0.312 µg + oleic acid (as sodium salt) 12.5 µg", "value": 35, "unit": "mm"},
      {"measurement": "Zone Size", "setting": "Candida albicans B 311; Table III, Sabouarud dextrose agar, aculeacin A 0.625 µg + oleic acid (as sodium salt) 12.5 µg", "value": 35, "unit": "mm"},
      {"measurement": "Zone Size", "setting": "Candida albicans B 311; Table III, Sabouarud dextrose agar, aculeacin A 1.25 µg + oleic acid (as sodium salt) 12.5 µg", "value": 37, "unit": "mm"},
      {"measurement": "Zone Size B 311", "setting": "Candida albicans B 311; [1]", "value": 13, "unit": "mm"},
      {"measurement": "Zone Size B 311", "setting": "Candida albicans B 311; [2]", "value": 14, "unit": "mm"},
      {"measurement": "Zone Size B 311", "setting": "Candida albicans B 311; [3]", "value": 15, "unit": "mm"},
      {"measurement": "Zone Size B 311", "setting": "Candida albicans B 311; [4]", "value": 17, "unit": "mm"},
      {"measurement": "Zone Size B 311", "setting": "Candida albicans B 311; [5]", "value": 20, "unit": "mm"},
      {"measurement": "Zone Size B 311", "setting": "Candida albicans B 311; [6]", "value": 26, "unit": "mm"},
      {"measurement": "Zone Size B 311", "setting": "Candida albicans B 311; [7]", "value": 30, "unit": "mm"},
      {"measurement": "Zone Size B 311", "setting": "Candida albicans B 311; [8]", "value": 32, "unit": "mm"},
      {"measurement": "Zone Size B 311", "setting": "Candida albicans B 311; [9]", "value": 35, "unit": "mm"},
      {"measurement": "Zone Size B 3153-A", "setting": "Candida albicans B 3153A; [1]", "value": 13, "unit": "mm"},
      {"measurement": "Zone Size B 3153-A", "setting": "Candida albicans B 3153A; [2]", "value": 15, "unit": "mm"},
      {"measurement": "Zone Size B 3153-A", "setting": "Candida albicans B 3153A; [3]", "value": 18, "unit": "mm"},
      {"measurement": "Zone Size B 3153-A", "setting": "Candida albicans B 3153A; [4]", "value": 17, "unit": "mm"},
      {"measurement": "Zone Size B 3153-A", "setting": "Candida albicans B 3153A; [5]", "value": 18, "unit": "mm"},
      {"measurement": "Zone Size B 3153-A", "setting": "Candida albicans B 3153A; [6]", "value": 25, "unit": "mm"},
      {"measurement": "Zone Size B 3153-A", "setting": "Candida albicans B 3153A; [7]", "value": 25, "unit": "mm"},
      {"measurement": "Zone Size B 3153-A", "setting": "Candida albicans B 3153A; [8]", "value": 28, "unit": "mm"},
      {"measurement": "Zone Size B 3153-A", "setting": "Candida albicans B 3153A; [9]", "value": 29, "unit": "mm"},
      {"measurement": "Zone Size BC 759", "setting": "Candida albicans BC 759; [1]", "value": 13, "unit": "mm"},
      {"measurement": "Zone Size BC 759", "setting": "Candida albicans BC 759; [2]", "value": 15, "unit": "mm"},
      {"measurement": "Zone Size BC 759", "setting": "Candida albicans BC 759; [3]", "value": 18, "unit": "mm"},
      {"measurement": "Zone Size BC 759", "setting": "Candida albicans BC 759; [4]", "value": 18, "unit": "mm"},
      {"measurement": "Zone Size BC 759", "setting": "Candida albicans BC 759; [5]", "value": 20, "unit": "mm"},
      {"measurement": "Zone Size BC 759", "setting": "Candida albicans BC 759; [6]", "value": 24, "unit": "mm"},
      {"measurement": "Zone Size BC 759", "setting": "Candida albicans BC 759; [7]", "value": 28, "unit": "mm"},
      {"measurement": "Zone Size BC 759", "setting": "Candida albicans BC 759; [8]", "value": 29, "unit": "mm"},
      {"measurement": "Zone Size BC 759", "setting": "Candida albicans BC 759; [9]", "value": 32, "unit": "mm"},
      {"measurement": "reduction in the infection", "setting": "C. albicans", "value": "did not inhibit the infection"}
    ]}
  ]
}
